What was measured:
rat astrocyte cells = assay: Apoptosis by in situ TUNEL assay, rat astrocytes in primary culture; assay type: cell-based; conditions: 100 μM, 24 hours, vs untreated astrocytes
Protocol: Apoptosis by in situ TUNNEL assay: This experiment was designed to test the hypothesis that down regulation of IGF1-R facilitates apoptosis in T98G cells. […] In addition, to test whether Asc-S treatment induces apoptosis in normal cells, rat astrocyte cells in primary culture were treated with 100 μM Asc-S for 24 hours. […] The increased apoptosis in the Asc-S treated T98G cells is due to down regulation of IGF1-R.
In FIG. 10, apoptosis was evaluated by in situ immunohistochemical detection and quantification at a single cell level.

Ras (p21) = Ras (p21) expression by Western blot, PANC-1; assay type: cell-based, human; conditions: 150 μM, 24 hours
Protocol: (§1) PANC-1 cells were cultured for 24 hours in MEM+10% FBS and treated with 150 μM Asc-S for 24 hours, Asc-S treated and untreated (control). PANC-1 cells were analyzed by Western immunoblotting as follows: Cell lysates of treated and non-treated PANC-1 cells were obtained. The lysates were sonicated, centrifuged and protein concentration was determined with Pierce BCA protein kit (Pierce Laboratories). A 20 μg of protein was loaded and resolved at 4% to 15% polyacrylamide gradient gel by sodium dodecyl sulfate-polyacrylamide gel electrophoresis (SDS-PAGE) and electroblotted onto a nitrocellulose membrane […]. The membrane was immunoblotted with mouse anti-human IGF1-R antibodies to cross-react the 85 kDa β-subunit of the IGF1-R (Pharmingen, San Diego, Calif.) followed by anti-mouse horseradish peroxidase conjugated secondary antibody (ECL, Amersham Corporation, Arlington Heights, Ill.). Antigen bound to nitrocellulose membrane was detected with the ECL system (Amersham Corporation, Arlington Heights, Ill.). P6 cells (3T3 fibroblast cells, transfected with a CVN plasmid constituitively expressing human IGF1-R) were used as the positive control.
Effects of Asc-S on Ras expression in PANC-1 cells: The activation of the IGF1-R induces a cascade of phosphorylations including that of GDP to GTP with activation of the Ras pathway. […]

PANC-1 cells = assay: MTT cell growth and viability assay, PANC-1; assay type: cell-based, human; conditions: 50-175 μM Asc-S, 24 hours, MEM+10% FBS or serum free MEM+15 nM IGF-1
Protocol: PANC-1 Cell Culture: The human pancreatic ductal adenocarcinoma cell line PANC-1 was obtained from the American Type Culture Collection (Rockville, Md.). PANC-1 cells were cultured for 24 hours in Minimum Essential Medium (MEM) (Whitaker M A Bioproducts, Walkersville, Md.) supplemented with 10% fetal bovine serum (FBS) (Hyclone Laboratories, Logan, Utah) or serum free MEM+15 nM human recombinant IGF-1, penicillin (50 U/ml), streptomycin (50 μg/ml) and 1.0 mM L-glutamine.
Cell Growth and Vitality: The effect of Asc-S on PANC-1 and PC-1 cell growth and viability was evaluated by 3-(4,5-dimethylthiazol-2yl)-2,5-diphenyl-tetrazoliumbromide (MTT) (Sigma Chemical Co., St. Louis, Md.) assay and the details of the procedure are as described earlier (Naidu et al., 1993a) PANC-1 cells were seeded at 2.5×10^4 viable cells well in 0.1 ml MEM supplemented with 10% FBS or serum free MEM with 15 nM human recombinant IGF-1 in 96 multiwell tissue culture plates. The following day when the cells were nearly confluent, the medium was replaced with fresh medium and 50, 75, 100, 125, 150, 175 and 200 μM Asc-S were added and incubated in a CO2 incubator at 37° C. for 24 hours with respective untreated controls.

[1] = mice; cited from earlier work
[2] = tested on: mouse glioma cells (G-26); assay: Intracerebral G-26 glioma in C57BL/6 mice, survival; assay type: in vivo; conditions: C57BL/6 mice with intracerebral G-26 gliomas, oral 250 mg/Kg daily; controls 27±2 days
Protocol: In vivo administration of Asc-S (250 mg/Kg) on intracerebral gliomas in C57BL/6 mice: The C57BL/6 mice were implanted with mouse glioma cells (G-26) by stereotaxic intracerebral implantation. […] (FIGS. 11A and B).
The body weight profiles of those mice during the experiments are shown in (FIG. 11B). The median survival observed in this study is statistically significant (P<0.05).
In vivo administration of Asc-S (250 mg/Kg) on intracerebral gliomas in C57BL/6 mice. The C57BL/6 mice were implanted with mouse glioma cells (G-26) by stereotaxic intracerebral implantation.
The body weight profiles of those mice during the experiments are shown in (FIG. 17B). The median survival observed in this study is statistically significant (P<0.05).

IGF1-R = IGF1-R expression by Western immunoblotting, PANC-1; assay type: cell-based, human; conditions: 150 μM, 24 hours, vs untreated control
Protocol: as §1
In additional experiments PANC-1 cells were cultured in MEM+10% FBS and treated with different concentrations of Asc-S (e.g. 50, 75, 100, 125, 150 and 200 μM) for 24 hours. […]

CCCCCCCCCCCCCCCCCC(=O)OC[C@H](O)[C@H]1OC(=O)C(O)=C1O [Asc-S, Ascorbyl stearate]
apoptotic rate (in situ TUNEL), rat astrocytes (rat astrocyte cells): did not increase the apoptotic rate | Ras (p21) expression, PANC-1 (Ras (p21)): significant inhibition | PANC-1 cell proliferation (MTT assay) (PANC-1 cells): inhibited cell proliferation in a dose dependent manner | LD50 [1]: 25000 mg/kg | median survival [2]: 43 ± 2 days | IGF1-R expression, PANC-1 cells (Western blotting) (IGF1-R): significantly lower number of receptors
